# Test results from patent publication US20250352539A1, “COMBINATION THERAPY FOR TREATING CANCER” (AstraZeneca AB, priority 2022, published 2025).
# Several values for one entry are separate records, joined by “and”; a condition that tells them apart may be missing. Equal entries are not always repeated. Where two headings read alike, the source gives them in different places.
# Columns and labels:
# Format in all cases: cell-based
# NCI-H838 = assay: 10-day Cell Titre Glo combination screen; details: Homo sapiens; NCI-H838 lung; monotherapy; read-out: mono AC50
# Summary of the method: (§1)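 Cells were exposed to pairwise drug combinations in a 6×6 dose matrix for 10 days, and viability was read by CellTiter-Glo ATP luminescence. Values were normalised to day-zero and DMSO controls, with synergy scored against a Highest Single Agent model (HSA Volume) and as combination index at a chosen iso-effect level.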
# NCI-H1573 = assay: 10-day Cell Titre Glo combination screen; details: Homo sapiens, NCI-H1573, 240 h, NCI-H1573 lung; monotherapy; read-out: mono AC50
# Summary of the method: as §1
# A549 = assay: 10-day Cell Titre Glo combination screen; details: Homo sapiens; A549 lung; monotherapy; read-out: mono AC50
# Summary of the method: as §1
# HCC1395 = assay: 10-day Cell Titre Glo combination screen; details: Homo sapiens; HCC1395 breast; monotherapy; read-out: mono AC50
# Summary of the method: as §1
# CAL-51 = assay: 10-day Cell Titre Glo combination screen; details: Homo sapiens; CAL-51 breast; monotherapy; read-out: mono AC50
# Summary of the method: as §1
# HCC1569 = assay: 10-day Cell Titre Glo combination screen; details: Homo sapiens; HCC1569 breast; monotherapy; read-out: mono AC50
# Summary of the method: as §1
# MDA-MB-468 = assay: 10-day Cell Titre Glo combination screen; details: Homo sapiens; MDA-MB-468 breast; monotherapy; read-out: mono AC50
# Summary of the method: as §1
# PC-9 = assay: 10-day Cell Titre Glo combination screen; details: Homo sapiens; PC-9 lung; monotherapy; read-out: mono AC50
# Summary of the method: as §1
# HCC1954 = assay: 10-day Cell Titre Glo combination screen; details: Homo sapiens; HCC1954 breast; monotherapy; read-out: mono AC50
# Summary of the method: as §1
# HCC1143 = assay: 10-day Cell Titre Glo combination screen; details: Homo sapiens; HCC1143 breast; monotherapy; read-out: mono AC50
# Summary of the method: as §1
# NCI-H2085 = assay: 10-day Cell Titre Glo combination screen; details: NCI-H2085 lung; monotherapy; read-out: mono AC50
# Summary of the method: as §1
# MCF7 T52 = assay: 10-day Cell Titre Glo combination screen; details: Homo sapiens; MCF7 T52 breast; monotherapy; read-out: mono AC50
# Summary of the method: as §1
# SW1573 = assay: 10-day Cell Titre Glo combination screen; details: Homo sapiens; SW1573 lung; monotherapy; read-out: mono AC50
# Summary of the method: as §1
# HCC1806 = assay: 10-day Cell Titre Glo combination screen; details: Homo sapiens; HCC1806 breast; monotherapy; read-out: mono AC50
# Summary of the method: as §1
# RKO = assay: 144-hour CellTiter-Glo 2.0 proliferation assay; details: Homo sapiens; RKO colorectal; monotherapy; read-out: mono GI50
# Experimental: (§2) Combination profiling was carried out in a panel of cancer cell lines utilising Horizon Discovery's High Throughput Screening platform.
# (§3) Cell lines that have been preserved in liquid nitrogen are thawed and expanded in growth media (see Table 1). Once cells have reached expected doubling times, screening begins. Cells are seeded in 25 μl of growth media in black 384-well tissue culture treated plates (seeding density as noted in Table 11).
# (§4) Cells are equilibrated in assay plates via centrifugation and placed at 37° C. 5% CO2 for twenty-four hours before treatment.
# (§5) Compounds are transferred to assay plates using and Echo acoustic liquid handling system. 25 nl of each compound was added at the appropriate concentration for all combination dose points. Therefore, final assay volume would be […]. Assay plates are incubated with compound for 6 days and are then analysed using CellTiter-Glo 2.0. All data points are collected via automated processes and are subject to quality control and analysed.
# (§6) Growth Inhibition (GI) is reported as a measure of cell growth. The GI percentages are calculated by applying the following test and equation: […]
# (§7) where T is the signal measure for a test article, V is the untreated/vehicle-treated control measure, and Vo is the untreated/vehicle control measure at time zero (also colloquially referred as T0 plates). This formula is derived from the Growth Inhibition calculation used in the National Cancer Institute's NCI-60 high throughput screen. For the purposes of this report, all data analysis was performed in Growth Inhibition (except where noted).
# GCIY = assay: 144-hour CellTiter-Glo 2.0 proliferation assay; details: Homo sapiens; GCIY gastric; monotherapy; read-out: mono GI50
# Experimental: as §2, §3, §4, §5, §6, §7
# CFPAC-1 = assay: 144-hour CellTiter-Glo 2.0 proliferation assay; details: Homo sapiens; CFPAC-1 pancreatic; monotherapy; read-out: mono GI50
# Experimental: as §2, §3, §4, §5, §6, §7
# PSN1 = assay: 144-hour CellTiter-Glo 2.0 proliferation assay; details: monotherapy, read-out: mono GI50
# Experimental: as §2, §3, §4, §5, §6, §7
# A2780 = assay: 144-hour CellTiter-Glo 2.0 proliferation assay; details: Homo sapiens; A2780 ovarian; monotherapy; read-out: mono GI50
# Experimental: as §2, §3, §4, §5, §6, §7
compound,measurement,setting,value
"C[C@@H]1COCCN1c1cc(C2([S@](C)(=N)=O)CC2)nc(-c2ccnc3[nH]ccc23)n1 [AZD6738, 4-{4-[(3R)-3-Methylmorpholin-4-yl]-6-[1-((R)—S-methylsulfonimidoyl)cyclopropyl]pyrimidin-2-yl}-1H-pyrrolo[2,3-b]-pyridine]",AC50,NCI-H838,274 nM
same,AC50,NCI-H1573,1390 nM
same,AC50,A549,3110 nM
same,AC50,HCC1395,814 nM
same,AC50,CAL-51,1360 nM
same,AC50,HCC1569,957 nM
same,AC50,MDA-MB-468,2310 nM
same,AC50,PC-9,510 nM
same,AC50,HCC1954,2560 nM
same,AC50,HCC1143,460 nM
same,AC50,NCI-H2085,4750 nM and 5490 nM
same,AC50,MCF7 T52,1390 nM
same,AC50,SW1573,3650 nM
same,AC50,HCC1806,412 nM
same,GI50,RKO,1020 nM
same,GI50,GCIY,179 nM
same,GI50,CFPAC-1,757 nM
same,GI50,"PSN1; Homo sapiens, PSN1, PSN1 pancreatic",858 nM
same,GI50,PSN1; PSN1 pancreatic,746 nM
same,GI50,A2780,667 nM
